Experimental data from US7919513B2, “Inhibitors of p38” (Vertex Pharmaceuticals Incorporated, priority 2000, dated 2011).

Key:
[1] = test system: IL-1 production in LPS-stimulated PBMCs; assay: Inhibition of IL-1 production in LPS-stimulated PBMCs ("cell"); format: cell-based; conditions: Homo sapiens, PBMC, 4 ng/ml LPS, overnight, ELISA IL-1β
Experimental: (§1) C. Inhibition of IL-1, TNF, IL-6 and IL-8 Production in LPS-Stimulated PBMCs
(§2) Inhibitors were serially diluted in DMSO from a 20 mM stock. At least 6 serial dilutions were prepared. Then 4× inhibitor stocks were prepared by adding 4 μl of an inhibitor dilution to 1 ml of RPMI1640 medium/10% fetal bovine serum. The 4× inhibitor stocks contained inhibitor at concentrations of 80 μM, 32 μM, 12.8 μM, 5.12 μM, 2.048 μM, 0.819 μM, 0.328 μM, 0.131 μM, 0.052 μM, 0.021 μM etc. The 4× inhibitor stocks were pre-warmed at 37° C. until use.
(§3) Fresh human blood buffy cells were separated from other cells in a Vacutainer CPT from Becton & Dickinson (containing 4 ml blood and enough DPBS without Mg^2+/Ca^2+ to fill the tube) by centrifugation at 1500×g for 15 min. […] The total cell number was determined using a Neubauer Cell Chamber and the cells were adjusted to a concentration of 4.8×10^6 cells/ml in cell culture medium (RPMI1640 supplemented with 10% fetal bovine serum). […]
(§4) The next day the cells were mixed on a shaker for 3-5 minutes before centrifugation at 500×g for 5 minutes. Cell culture supernatants were harvested and analyzed by ELISA for levels of IL-1β (R & D Systems, Quantikine kits, #DBL50), TNF-α (BioSource, #KHC3012), IL-6 (Endogen, #EH2-IL6) and IL-8 (Endogen, #EH2-IL8) according to the instructions of the manufacturer. […]

[2] = test system: IL-1 production in whole blood; assay: Inhibition of IL-1 production in LPS-stimulated whole blood ("WB"); format: cell-based; conditions: Homo sapiens, 4 ng/ml LPS, overnight, ELISA IL-1β
Experimental: as §1, §2
(§5) Alternatively, whole blood containing an anti-coagulant was used directly in the assay.
(§6) 100 μl of cell suspension or whole blood were placed in each well of a 96-well cell culture plate. Then 50 μl of the 4× inhibitor stock was added to the cells. Finally, 50 μl of a lipopolysaccharide (LPS) working stock solution (16 ng/ml in cell culture medium) was added to give a final concentration of 4 ng/ml LPS in the assay. […]
as §4

activated p38 = activated p38 (Homo sapiens, UniProt Q16539); assay: Kinase assay: inhibition of phosphorylation of EGF receptor peptide; format: biochemical; conditions: activated p38 5 nM, EGF receptor peptide 200 μM, ATP 100 μM, 30° C, HPLC
Experimental: A. Inhibition of Phosphorylation of EGF Receptor Peptide
This assay was carried out in the presence of 10 mM MgCl2, 25 mM β-glycerophosphate, 10% glycerol and 100 mM HEPES buffer at pH 7.6. For a typical IC50 determination, a stock solution was prepared containing all of the above components and activated p38 (5 nM). The stock solution was aliquotted into vials. A fixed volume of DMSO or inhibitor in DMSO (final concentration of DMSO in reaction was 5%) was introduced to each vial, mixed and incubated for 15 minutes at room temperature. EGF receptor peptide, […] (SEQ ID NO: 3), a phosphoryl acceptor in p38-catalyzed kinase reaction (1), was added to each vial to a final concentration of 200 μM. The kinase reaction was initiated with ATP (100 μM) and the vials were incubated at 30° C. After 30 minutes, the reactions were quenched with equal volume of 10% trifluoroacetic acid (TFA).
The phosphorylated peptide was quantified by HPLC analysis. Separation of phosphorylated peptide from the unphosphorylated peptide was achieved on a reverse phase column (Deltapak, 5 μm, C18 100D, Part no. 011795) with a binary gradient of water and acteonitrile, each containing 0.1% TFA. IC50 (concentration of inhibitor yielding 50% inhibition) was determined by plotting the percent (%) activity remaining against inhibitor concentration.

[3] = test system: TNF production in LPS-stimulated PBMCs; assay: Inhibition of TNF production in LPS-stimulated PBMCs ("cell"); format: cell-based; conditions: Homo sapiens, PBMC, 4 ng/ml LPS, overnight, ELISA TNF-α
Experimental: as §1, §2, §3, §4

[4] = test system: TNF production in whole blood; assay: Inhibition of TNF production in LPS-stimulated whole blood ("WB"); format: cell-based; conditions: Homo sapiens, 4 ng/ml LPS, overnight, ELISA TNF-α
Experimental: as §1, §2, §5, §6, §4

[5] = test system: IL-6 production in whole blood; assay: Inhibition of IL-6 production in LPS-stimulated whole blood ("WB"); format: cell-based; conditions: Homo sapiens, 4 ng/ml LPS, overnight, ELISA IL-6
Experimental: as §1, §2, §5, §6, §4

Chain of activated p38 (Q16539 whole entry): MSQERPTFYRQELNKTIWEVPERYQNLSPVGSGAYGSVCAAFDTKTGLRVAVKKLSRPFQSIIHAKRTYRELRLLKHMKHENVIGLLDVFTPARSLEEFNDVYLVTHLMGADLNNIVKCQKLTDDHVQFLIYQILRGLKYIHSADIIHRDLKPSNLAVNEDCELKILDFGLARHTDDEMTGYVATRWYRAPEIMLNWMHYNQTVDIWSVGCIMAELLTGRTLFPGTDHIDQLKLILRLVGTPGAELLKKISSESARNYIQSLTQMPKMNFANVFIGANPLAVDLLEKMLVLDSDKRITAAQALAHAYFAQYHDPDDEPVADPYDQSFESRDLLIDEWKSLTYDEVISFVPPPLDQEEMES

Structure (SMILES) | IC50 [1] [µM] | IC50 [2] [µM] | IC50 (activated p38) [µM] | IC50 [3] [µM] | IC50 [4] [µM] | IC50 [5] [µM]
CN(C)/C=N/C(=O)OCc1ccc(N(C(N)=O)c2c(F)cccc2F)nc1-c1ccc(F)cc1F [Compound 9] | 0.05 | 12.2 | 1 | 0.05 | 20 | 11
CN(C)/C=N/C(=O)OCc1ccc(N(C(=O)/N=C/N(C)C)c2c(F)cccc2F)nc1-c1ccc(F)cc1F [Compound 10] | – | 2.2 | 5 | – | 4.3 | 0.8
